This assay deals with calcium channels. Description: 3H-nitrendipine binding (nitrendipine displacement) test. Particulars: 3H-nitrendipine 0.1 nM, rat brain cortex membranes, pH 7.4, 25° C., 60 min. How it is done:
Their calcium-antagonistic activity can be shown in the biochemical test model of displacement of tritium-labeled nitrendipine.
This entails membrane preparations which contain isolated calcium channels being loaded with labeled substance.
After incubation with the test substance, the radioactivity which has been released into the supernatant solution is determined. […] The compounds of the formula I are likewise very active in other test models with which a calcium-antagonistic action can be detected, for example the coronary blood flow in the isolated guinea pig heart, or the action potential of the isolated guinea pig papillary muscle.
The test of the activity of substances in the ^3 H-nitrendipine binding test was carried out in a membrane preparation obtained from the cortex of the rat brain and washed several times, the method used essentially being that described by R.J. Gould et al. (Proc. Natl. Acad. Sci. USA 79, 3656 [1982]). The membrane suspension was diluted 1:1500 with TRIS buffer pH 7.4 (50 mM TRIS.HCl, 150 mM NaCl, 1.0 mM CaCl2 and 0.001% by weight, based on TRIS.HCl, NaCl and CaCl2 in solution, of a neutral surface-active substance such as, for example, Genapol^(R)) was incubated in 5 ml portions with ^3 H-nitrendipine (0.1 nM in the test, specific activity 81.3 Ci/mmol) in a shaking water bath at 25° C. for 60 min. The membrane fractions were removed by vacuum filtration through Whatman GF/F glass fiber filters, and the radioactivity was measured in a liquid scintillation counter. The unspecific ^3 H-nitrendipine binding was determined in the presence of 1 μM nifedipine.

Where a name gives a salt, the structure may show the parent alone.

The text below walks through data of US4952598A, “3-phenyl indolinone derivatives, processes for their preparation, medicaments containing them, and their use” (Hoechst Aktiengesellschaft, priority 1985, dated 1990).

Consider `CC(C)C1(c2ccccc2OCCCCN2CCN(CCCC(c3ccc(F)cc3)c3ccc(F)cc3)CC2)C(=O)N(C)c2ccccc21` (stereo not shown) [Example 5, 3-[2-(4-(4-(4-bis(4-fluorophenyl)butyl)-1-piperazinyl)butoxy)phenyl]-3-isopropyl-1-methylindolin-2-one dihydrochloride], for which the IC50 stood at 13 nM.
In the case of `COc1cc(CN2CCN(CCCCOc3ccccc3C3(C(C)C)C(=O)N(C)c4ccccc43)CC2)cc(OC)c1OC` (stereo not shown) [Example 6, 3-Isopropyl-1-methyl-3-[2-(4-(4-(3,4,5-trimethoxybenzyl)-1-piperazinyl)butoxy)phenyl)indolin-2-one dichydrochloride], the IC50 turned out to be 44 nM.
For `COc1ccc(CCN(C)CCCCOc2ccccc2C2(C(C)C)C(=O)N(C)c3ccccc32)cc1OC` (stereo not shown) [Example 3, 3-[2-(4-(N-(2-(3,4-dimethoxyphenyl)ethyl)-N-methylamino)butoxy)-phenyl]-3-isopropyl-1-methylindolin-2-one hydrochloride], the IC50 came out at 22 nM.
As to `COc1ccc(CCN(C)CCCCOc2ccccc2C2(Cc3ccccc3)C(=O)N(C)c3ccccc32)cc1OC` (stereo not shown) [Example 1, 3-Benzyl-3-[2-(4-(N-(2-(3,4-dimethoxyphenyl)ethyl)-N-methylamino)butoxy)phenyl]-1-methylindolin-2-one hydrochloride], the IC50 worked out at 8000 nM.
